Solubility data for one compound are collected here from patent US20210388002A1, “DIMETHOXYBENZENE COMPOUND ANALOGS, METHODS FOR ANALYZING SAID COMPOUNDS AND STANDARD PRODUCTS OF SAID COMPOUNDS” (TAIHO PHARMACEUTICAL CO., LTD., priority 2018, published 2021).

The nature of this series: solubility in water and organic solvents. Type of series: physicochemical. The settings on record: free form; water, highly water-soluble organic solvents, highly fat-soluble organic solvents.

With `COc1cc(C#Cc2nn([C@H]3CCNC3)c3ncnc(N)c23)cc(OC)c1` [Compound B, (S)-3-((3,5-dimethoxyphenyl)ethynyl)-1-(pyrrolidin-3-yl)-1H-pyrazolo[3,4-d]pyrimidin-4-amine], the solubility entry is “easily soluble”.
